Assay results as given in US7771977B2, “Alkane polyol dehydrogenase” (National University Corporation Nara Institute of Science …, priority 2006, dated 2010).
Entries after “also recorded” stand apart in the source; their conditions may differ. Like-named read-outs stand apart in the source and are kept apart here.

How the values were obtained:
[1] = tested on: alkane polyol dehydrogenase (purified enzyme); assay type: biochemical, Pichia ofunaensis
Method: (§1) The reaction solutions were prepared using plural substrates with varied concentrations. Each solution contained a substrate, 2 mM NAD^+, and an enzyme, and was allowed to react in a 100 mM potassium phosphate buffer solution (pH 8.0) at 25° C. Then, changes in absorbance (molar absorption coefficient 6,220 M^−1·cm^−1) at 340 nm due to the NADH formation were measured. 1 U is defined as an enzyme amount for catalyzing 1 μmol NADH formation per minute.
(§2) The alkane polyol dehydrogenase obtained in Example 1 was utilized to measure the enzyme activities in the following manner.
(§3) 1 U was defined as the amount of enzyme that catalyzes the formation of 1 μmol of NADH per minute.
(§4) Measurement was performed in the same manner as in the activity measurements described earlier in 4-1.
Such activity was measured by causing a reaction mixture containing 5 mM (R)-1,2-octanediol, 2 mM NAD^+ and enzyme to react in a 100 mM potassium phosphate buffer solution (pH 8.0) at 25° C., then observing the change, due to NADH formation, of absorbance (molecular absorption coefficient 6,220 M^−1 ·cm^−1) at 340 nm. 1 U was defined as the amount of enzyme that catalyzes the formation of 1 μmol of NADH per minute.

[2] = tested on: alkane polyol dehydrogenase expressed in E. coli HB101 (pSE-HOG); test: Substrate specificity, cell extract of transformant E. coli HB101 (pSE-HOG); assay type: biochemical, Pichia ofunaensis; settings: for dehydrogenation (oxidative) activity of E. coli HB101 (pSE-HOG), in words: Table 4; for Activity, E. coli HB101 (pSE-HOG): cell extract, 2 mM NAD+, pH 8.0, 25° C.
Method: The Escherichia coli HB101 strain containing the pSE-HOG was cultivated in LB medium containing ampicillin. When the absorbance at 600 nm was 0.5, 0.1 mM IPTG was added thereto. Six hours after the addition, cells were harvested by centrifugal separation.
The obtained cells were suspended in a cell disruption solution (100 mM potassium phosphate buffer solution (pH 8.0)). The cell bodies therein were disrupted using a mini bead beater (produced by BioSpec Products), then subjected to centrifugal separation for 10 minutes under an acceleration of 16,000 g. Thereby, the supernatant thereof as a cell extract was obtained.
as §3
(§5) The substrate specificity of the protein of the present invention was analyzed using the purified enzyme obtained in Example 1 and the transformant (E. coli HB101 (pSE-HOG)) obtained in Example 3. For comparison, the same analysis was conducted with respect to a transformant (E. coli HB101 (pSE420D)) that was produced in the same manner as for E. coli HB101 (pSE-HOG), except that the plasmid (pSE420D) in which the relevant enzyme gene was not inserted was used.
as §4

[3] = tested on: alkane polyol dehydrogenase (purified enzyme); test: Reduction activity measurement with purified alkane polyol dehydrogenase (NADH reduction at 340 nm); assay type: biochemical, Pichia ofunaensis; settings: for reduction activity of the purified enzyme, in words: Table 3; for Reduction Activity: 0.2 mM NADH, pH 6.0, 25° C.
Method: as §1, with “substrate, 0.2” for “substrate, 2”, “mM NADH,” for “mM NAD^+,”, “(pH 6.0)” for “(pH 8.0)”, “NADH reduction” for “NADH formation”, “per minutes.” for “per minute.”
as §2
1 U was defined as the amount of enzyme that catalyzes the reduction of 1 μmol of NADH per minute.

E. coli HB101 (pSE420D) = test: Substrate specificity, comparison transformant E. coli HB101 (pSE420D) without the enzyme gene; assay type: biochemical, Escherichia coli; settings: for Activity, E. coli HB101 (pSE-420D): comparison transformant, substrate 100 mM, 2 mM NAD+, pH 8.0, 25° C.
Method: as §3, §5, §4

[4] = purified enzyme, Tables 2 and 4
[5] = purified enzyme, substrate 100 mM, 2 mM NAD+, pH 8.0, 25° C.

Compound: OCC[C@@H](O)CO [(R)-1,2,4-Butanetriol]
- oxidative (dehydrogenation) activity of the purified enzyme, in words [1, 4]: significant dehydrogenation activity
- Oxidative Activity [1, 5]: 3.9 U/mg
- dehydrogenation (oxidative) activity of E. coli HB101 (pSE-HOG), in words [2]: significant dehydrogenation activity
- Activity, E. coli HB101 (pSE-HOG) ([2]; substrate 100 mM): 0.15 U/mg

Compound: CCCCCCC(C)O (stereo not drawn) [2-Octanol]
- oxidative (dehydrogenation) activity of the purified enzyme, in words [1, 4]: no activity was observed

Compound: CCC(=O)C(=O)CC [3,4-Hexanedione]
- reduction activity of the purified enzyme, in words [3]: high reduction activity
- Reduction Activity ([3]; substrate 5 mM): 32.8 U/mg

Compound: CC(O)CCC(C)O (stereo not drawn) [2,5-Hexanediol]
- oxidative (dehydrogenation) activity of the purified enzyme, in words [1, 4]: only a weak oxidative activity
- Oxidative Activity [1, 5]: 0.77 U/mg

Compound: O=C1CCCCC1 [Cyclohexanone]
- Reduction Activity ([3]; substrate 10 mM): 0.28 U/mg

Compound: CCCCCC(O)CO (stereo not drawn) [1,2-Heptanediol]
- oxidative (dehydrogenation) activity of the purified enzyme, in words [1, 4]: well-oxidized
- Oxidative Activity ([1]; purified enzyme, substrate 10 mM, 2 mM NAD+, pH 8.0, 25° C.): 27.8 U/mg

Compound: CCCCO [1-Butanol]
- oxidative (dehydrogenation) activity of the purified enzyme, in words [1]: did not have oxidative activity

Compound: C[C@@H](O)CO [(R)-1,2-Propanediol]
- Activity, E. coli HB101 (pSE-420D) (E. coli HB101 (pSE420D)): <0.1 U/mg
- Oxidative Activity [1, 5]: 89.2 U/mg
- Activity, E. coli HB101 (pSE-HOG) ([2]; substrate 100 mM): 0.80 U/mg

Compound: CC(C)O [Isopropanol]
- oxidative (dehydrogenation) activity of the purified enzyme, in words [1, 4]: weak oxidative activity
- Oxidative Activity [1, 5]: 1.45 U/mg

Compound: CCCCCC(C)O (stereo not drawn) [2-Heptanol]
- oxidative (dehydrogenation) activity of the purified enzyme, in words [1, 4]: no activity was observed

Compound: OCc1ccccc1 [Benzyl alcohol]
- oxidative (dehydrogenation) activity of the purified enzyme, in words [1, 4]: did not have oxidative activity

Compound: CC(O)C(C)O (stereo not drawn) [meso-2,3-Butanediol]
- Activity, E. coli HB101 (pSE-420D) (E. coli HB101 (pSE420D)): <0.1 U/mg
- Oxidative Activity [1, 5]: 160 U/mg
- Activity, E. coli HB101 (pSE-HOG) ([2]; substrate 100 mM): 1.17 U/mg

Compound: CCCCCO [1-Pentanol]
- oxidative (dehydrogenation) activity of the purified enzyme, in words [1, 4]: did not have oxidative activity

Compound: CCC(O)CO (stereo not drawn) [1,2-Butanediol]
- oxidative (dehydrogenation) activity of the purified enzyme, in words [1, 4]: well-oxidized
- Oxidative Activity [1, 5]: 61.0 U/mg

Compound: CC(=O)CO [Acetol]
- reduction activity of the purified enzyme, in words [3]: high reduction activity
- Reduction Activity ([3]; substrate 100 mM): 64.9 U/mg

Compound: CO [Methanol]
- oxidative (dehydrogenation) activity of the purified enzyme, in words [1, 4]: did not have oxidative activity

Compound: CC(O)CC(C)O (stereo not drawn) [2,4-Pentanediol]
- oxidative (dehydrogenation) activity of the purified enzyme, in words [1, 4]: only a weak oxidative activity
- Oxidative Activity [1, 5]: 2.53 U/mg

Compound: CCC(=O)CO [1-Hydroxy-2-butanone]
- Reduction Activity ([3]; substrate 100 mM): 5.84 U/mg

Compound: CCC(C)O (stereo not drawn) [2-Butanol]
- oxidative (dehydrogenation) activity of the purified enzyme, in words [1]: weak oxidative activity
- Oxidative Activity ([1]; pH 8): <0.1 U/mg

Compound: CCCO [1-Propanol]
- oxidative (dehydrogenation) activity of the purified enzyme, in words [1]: did not have oxidative activity

Compound: CCC(=O)C(C)=O [2,3-Pentanedione]
- reduction activity of the purified enzyme, in words [3]: high reduction activity
- Reduction Activity ([3]; substrate 5 mM): 73.8 U/mg

Compound: CCCCC(O)CO (stereo not drawn) [1,2-Hexanediol]
- oxidative (dehydrogenation) activity of the purified enzyme, in words [1, 4]: well-oxidized
- Oxidative Activity [1, 5]: 38.4 U/mg

Compound: CC(O)C(C)O (stereo not drawn) [2,3-Butanediol]
- oxidative (dehydrogenation) activity of the purified enzyme, in words [1, 4]: well-oxidized; also recorded: high dehydrogenation activity
- Oxidative Activity [1, 5]: 50.0 U/mg
- dehydrogenation (oxidative) activity of E. coli HB101 (pSE-HOG), in words [2]: high dehydrogenation activity

Compound: OCC[C@H](O)CO [(S)-1,2,4-Butanetriol]
- oxidative (dehydrogenation) activity of the purified enzyme, in words [1, 4]: no activity was seen
- dehydrogenation (oxidative) activity of E. coli HB101 (pSE-HOG), in words [2]: no activity was seen

Compound: C[C@@H](O)[C@@H](C)O [(2R,3R)-2,3-Butanediol]
- Oxidative Activity [1, 5]: 82.1 U/mg
- Activity, E. coli HB101 (pSE-HOG) ([2]; substrate 100 mM): 0.72 U/mg

Compound: CCCC(=O)C(C)=O [2,3-Hexanedione]
- reduction activity of the purified enzyme, in words [3]: high reduction activity
- Reduction Activity ([3]; substrate 5 mM): 67.5 U/mg

Compound: CCCCCC[C@@H](O)CO [(R)-1,2-octanediol]
- (R)-1,2-octanediol dehydrogenase activity per 1 mg of the purified protein ([1]; per 1 mg purified protein, 5 mM substrate, 2 mM NAD+, pH 8.0, 25° C.): ≥ 60 U

Compound: CCCC(O)CO (stereo not drawn) [1,2-Pentanediol]
- oxidative (dehydrogenation) activity of the purified enzyme, in words [1, 4]: well-oxidized
- Oxidative Activity [1, 5]: 99.3 U/mg

Compound: C[C@H](O)CO [(S)-1,2-Propanediol]
- Activity, E. coli HB101 (pSE-420D) (E. coli HB101 (pSE420D)): <0.1 U/mg
- Oxidative Activity [1, 5]: 36.4 U/mg
- Activity, E. coli HB101 (pSE-HOG) ([2]; substrate 100 mM): 0.29 U/mg

Compound: CCCCCCO [n-Hexanol]
- oxidative (dehydrogenation) activity of the purified enzyme, in words [1, 4]: did not have oxidative activity

Compound: C[C@H](O)[C@H](C)O [(2S,3S)-2,3-Butanediol]
- Oxidative Activity [1, 5]: 19.4 U/mg
- Activity, E. coli HB101 (pSE-HOG) ([2]; substrate 100 mM): 0.12 U/mg

Compound: CCCC(=O)CC [3-Hexanone]
- Reduction Activity ([3]; substrate 10 mM): 1.39 U/mg

Compound: CCCCCCC(O)CO (stereo not drawn) [1,2-Octanediol]
- dehydrogenation activity of E. coli HB101 (pSE420D), in words (E. coli HB101 (pSE420D); Table 4): does not show the dehydrogenation activity
- oxidative (dehydrogenation) activity of the purified enzyme, in words [1, 4]: well-oxidized
- oxidative (dehydrogenation) activity of the purified enzyme, in words ([1]; purified enzyme, Tables 2 and 4, listed as (R,S)-1,2-octanediol): excellent dehydrogenation activity; also recorded: show an oxidative activity
- Oxidative Activity ([1]; purified enzyme, substrate 5 mM, 2 mM NAD+, pH 8.0, 25° C.): 64.3 U/mg
- dehydrogenation (oxidative) activity of E. coli HB101 (pSE-HOG), in words ([2]; listed as (R,S)-1,2-octanediol): excellent dehydrogenation activity; also recorded: show an oxidative activity
- Activity, E. coli HB101 (pSE-HOG) ([2]; substrate 5 mM): 0.53 U/mg

Compound: CCC(C)=O [2-Butanone]
- Reduction Activity ([3]; substrate 100 mM): 0.40 U/mg

Compound: CC(O)CCO (stereo not drawn) [1,3-Butanediol]
- oxidative (dehydrogenation) activity of the purified enzyme, in words [1, 4]: only a weak oxidative activity
- Oxidative Activity [1, 5]: 6.0 U/mg

Compound: CCCC(C)=O [2-Pentanone]
- Reduction Activity ([3]; substrate 100 mM): 3.71 U/mg

Compound: CC(=O)C(C)O (stereo not drawn) [3-Hydroxy-2-butanone]
- Oxidative Activity [1, 5]: 0.55 U/mg
- reduction activity of the purified enzyme, in words [3]: high reduction activity
- Reduction Activity ([3]; substrate 100 mM): 102 U/mg

Compound: CCO [Ethanol]
- oxidative (dehydrogenation) activity of the purified enzyme, in words [1]: did not have oxidative activity

Compound: CC(O)CO (stereo not drawn) [1,2-Propanediol]
- oxidative (dehydrogenation) activity of the purified enzyme, in words [1, 4]: well-oxidized; also recorded: high dehydrogenation activity
- Oxidative Activity [1, 5]: 71.7 U/mg
- dehydrogenation (oxidative) activity of E. coli HB101 (pSE-HOG), in words [2]: high dehydrogenation activity
